From US6338963B1, “Use of carbon monoxide dependent guanylyl cyclase modifiers to stimulate neuritogenesis” (NeoTherapeutics, Inc., priority 1994, dated 2002)

Assays:
[1] = system: BDNF mRNA; assay: Northern blot of neurotrophin mRNA from astrocytes: BDNF; format: cell-based, NIH Swiss mice; design: key: The conditions which produced a detectable amount of each of the neurotrophin mRNAs are indicated by a “+”; a “++” indicating that at least twice the detectable amount was present; Those blots which were negative are indicated by a “−”; details: 24 hours
Protocol: Induction of neurotrophin mRNA was determined by northern blot analysis of astrocytes cultured with AIT-082, NGF, or both. The cells were harvested and RNA extracted at 24 hours after treatment.
More particularly, astrocytes from the cerebral cortex of NIH Swiss mice (Harlan) were isolated. Briefly, newborn pups (0-24 hours) were decapitated. Their brains were removed under aseptic conditions and were placed in modified Dulbecco's medium (DMEM) containing 20% heat-inactivated horse serum (Hyclone) (“complete medium”). The neopallium was then dissected from each cerebral hemisphere and minced into 1 mm cubes.
The astrocytes were then isolated by mechanical dissociation. The cubes were vortexed at maximum speed for one minute. The cell suspension was then passed first through 75 mm Nitex then through 10 mm Nitex. The resulting cell suspension was diluted in complete medium to a final concentration of one brain per 10 ml of complete medium. Ten milliliters of the diluted cell suspension was added to each 100 mm Falcon tissue culture plate (Fisher). After 3 days the medium was replaced with 10 ml fresh complete medium and subsequently was replaced twice weekly with DMEM containing 10% heat inactivated horse serum (“growth medium”). After two weeks in culture the astrocytes formed a confluent monolayer.
For RNA extraction, astrocytes were trypsinized. The astrocytes were then replated onto 100 mm PORN coated plates at a cell density of 10^6 cells per plate (10 ml growth medium). […]
The blots were probed with ^32P-labeled cDNA (NGF, NT-3 and BDNF probes) or oligonucleotide probe (FGF-2) by hybridization in Piperazine-N,N′-bis-(2-ethanesulfonic acid) (PIPES) buffer (50 mM PIPES, pH 6.8; 50 mM NaH2PO4; 0.1 M NaCl; 5% SDS and 1 mM EDTA) overnight at 50° C. […] Various concentrations ([…] of total RNA), as determined by spectrophotometry, of each sample were blotted and probed so that quantification could be done after insuring a linear film response. Quantification was performed using MCID Image Analysis (St. Catherine's, Ontario, Canada). […]

[2] = system: CNTF; assay: Summary of effects on growth factor mRNA and protein (Table R): CNTF; design: key: ± = mRNA; + = protein; nt = not tested
From the text: The constellation of effects of AIT-082 on production of mRNA encoding growth factors and on production of growth factor proteins is shown in Table R. The results summarized in […] show both transcriptional and translational effects on growth factors that are in the categories of neurotrophins, pleiotrophins, members of the S100 family of EF hand calcium binding proteins, and members of the TGFβ superfamily. As indicated, effects have been shown at both the mRNA (transcriptional) and protein (translational) levels.

[3] = system: Swiss Webster mice; assay: Locomotor activity (spontaneous movements), Swiss Webster mice; format: in vivo
Protocol: The activity of AIT-082 was compared with tacrine (THA) and physostigmine (PHY), experimental anticholinesterase agents which enhance memory in animals. The drugs were also evaluated for their effects on locomotor activity. In the win-shift memory paradigm, AIT-082 was evaluated for its ability to induce tolerance after 18 days of drug administration. In addition AIT-082 was tested for its activity to modify learning in a modified T-maze discrimination task.
The drugs used in this example are 4-((3-(1,6-dihydro-6-oxo-9-purin-9-yl)-1-oxopropyl)amino) benzoic acid (AIT-082), as an exemplary potassium salt, tacrine hydrochloride (tetrahydroaminoacridine, THA, Sigma Chemical Co., St. Louis, Mo.), and physostigmine, hemisulfate salt (PHY, Sigma Chemical Co., St. Louis, Mo.). The drugs were dissolved in saline and prepared fresh daily. All injections were made at a volume of 0.1 ml/10 grams body weight. When testing drug effects, intraperitoneal (i.p.) injections of AIT-082 or THA were made one hour prior to the start of testing. Due to its shorter duration of action, PHY was injected 30 minutes prior to testing. Control subjects receive a similar injection of saline (vehicle).

[4] = system: adenosine receptor; assay: Receptor ligand binding in vitro, adenosine
Protocol: AIT-082 was evaluated for its ability to inhibit ligand binding to 38 isolated receptors.

[5] = system: mice; assay: Motor coordination, accelerating Roto-Rod treadmill; format: in vivo; details: AIT dose 0.005 mg/kg
Protocol: Motor coordination was measured using an accelerating Roto-Rod treadmill for mice (Ugo Basile Co.). At various times after treatment with saline or drug, mice were placed on the Roto-Rod, which accelerates to maximum speed over a 5 minute period. The time in seconds at which the subject falls off was recorded in Table B directly below. Each animal was tested 3 times and the mean time was recorded.

[6] = system: rats; details: oral or intraperitoneal route, preliminary

How did the “BDNF mRNA” value ([1]; AIT-082 100 mM) turn out when O=C(CCn1cnc2c(=O)[nH]cnc21)Nc1ccc(C(=O)O)cc1 [AIT-082, N-4-carboxyphenyl-3-(6-oxohydropurin-9-yl)propanamide] was run?
Its value is “+”.

What about the “BDNF mRNA” value ([1]; AIT-082 + NGF (40 ng/ml)) of the same compound?
Its value is “+”.

What about the “CNTF, effect on mRNA/protein production” value ([2]; Lesioned Spinal Cord) of the same compound?
The value was “±”.

What about the “CNTF, effect on mRNA/protein production” value ([2]; Normal Spinal Cord) of the same compound?
Its value is “±”.

What about the “Locomotor Activity” value ([3]; AIT-082 0.5 mg/kg) of the same compound?
Its value is 323 Spontaneous movements per hour.

And the “Locomotor Activity” value ([3]; AIT-082 30.0 mg/kg)?
The value was 378 Spontaneous movements per hour.

What about the “binding to the adenosine receptor” value [4] of the same compound?
Its value is “does not bind”.

What about the “Roto-Rod performance, Time” value [5] of the same compound?
Its value is 162 ± 93 s.

What about the LD50 [6] of the same compound?
Its LD50 is over 3000 mg/kg.
